The values that follow come from patent US5886033A, “Use of isoxazole and crotonamide derivatives for the treatment of carcinomatous disorders” (Hoechst Aktiengesellschaft, priority 1995, dated 1999).

By IC50 is commonly meant the concentration needed to halve the response being measured.

Data set [1] has as its system LoVo cells. Description: Inhibition of the proliferation of tumor cells (MTT test), LoVo. To be noted: Homo sapiens, Table 2, colonic carcinoma, no uridine, read-out: MTT Test IC50. The format is cell-based, human. As for the experimental part: (§1) Inhibition of the proliferation of tumor cells (MTT test)
(§2) 1×10^4 cells per well are inoculated into a 96-well microtiter plate. After 24 h, the test substances are added at various concentrations. Each group consists of 4 wells, the control is only incubated with medium. After 65 h, 50 μl of MTT (3-(4,5-dimethyl-2-thiazolyl)-2,5-diphenyl-2H-tetrazolium bromide; 2.5 mg/ml in PBS) are added and, after 7 h, the supernatant is removed. The color formed by the living cells is dissolved by addition of 100 μl of dimethyl sulfoxide/well. The extinction is measured at 492 nm for each well with the aid of a Multiscan photometer 340 CC (Flow). The cell lines used are obtainable as follows from the American Type Culture Collection: HUV-EC-C is ATCC CRL 1730; A-172 is ATCC CRL 1620; L 1210 is ATCC CCL 219; LoVo is ATCC CCL 229; C 6 is ATCC CCL 107 and a rat glioblastoma cell line.
(§3) The mean value is formed from the 4 wells of a group and the IC50 values are calculated from the dose-response curve using the Software 3.0 (Erithacus Software Ltd.).

The test system of the next data set is HUV-EC-C. Description: Inhibition of proliferation (MTT test), HUV-EC-C / HUVEC endothelial cells. The format is cell-based, human. To be noted: Homo sapiens, Endothelial cell, Table 2; HUV-EC-C, endothelial cell; read-out: MTT Test IC50. As for the experimental part:
as §1, §2, §3
For orientation: Tetrazolium assays rely on reduction of a dye to a coloured formazan, in cell work by metabolically active cells.

A further data set relates to A-172. Description: Inhibition of the proliferation of tumor cells (MTT test), A-172. The format is cell-based, human. The settings on record: Homo sapiens, A 172, Table 2; A-172, glioblastoma; read-out: MTT Test IC50. As for the experimental part:
as §1, §2, §3

A further data set deals with L1210. Description: Inhibition of the proliferation of tumor cells (MTT test), L1210. The format is cell-based. The settings on record: Table 2; L1210, leukemia (mouse). As for the experimental part:
as §1, §2, §3

In another data set the test system is C 6. Description: Inhibition of the proliferation of tumor cells (MTT test), C 6. The format is cell-based, rat. To be noted: Rattus norvegicus, C6, Table 2; C 6, rat glioblastoma; read-out: MTT Test IC50. As for the experimental part: as §1, §2, §3
The test system of data set [2] is LoVo cells. Description: MTT test on LoVo cells with added uridine. The settings on record: for IC50: Homo sapiens, LoVo, Table 3. It is filed as cell-based, human. As for the experimental part:
as §2, §3
The procedure is as in Example 6; uridine is additionally added to the batches.

Data set [3] relates to pyrimidine and purine nucleotides. The settings on record: cited from earlier work.
The subject of another data set is in vitro cell lines. To be noted: Peters et al., 1987; cited from earlier work.
For the next data set, the system named is plasma uridine. The settings on record: clinical investigations, cited from earlier work.

Take `Cc1c(-c2ccc(-c3ccccc3F)cc2)nc2ccc(F)cc2c1C(=O)O` [Brequinar, reference compound]: the IC50 came to 0.388 µM in the data set on LoVo cells [1]; 9.4 µM with HUV-EC-C; 0.2 µM in the data set with A-172; 1 µM with L1210; 9 µM with C 6; 0.388 µM in the data set with LoVo cells [2] (uridine 0 μM). The same compound yielded an IC50 in the data set with LoVo cells [2] (uridine 1000 μM) of 129 µM. Moreover, in the data set with LoVo cells [2] (MTT test, in words), the “change of the IC50 value on the LoVo cell line on addition of increasing amounts of uridine” value is on record as “massive increase in the IC50 value”. The depletion of nucleotides entry in [3] (Schwartsmann et al., 1988) was “depletion of pyrimidine ribo- and deoxyribonukleotides, but not of purine nucleotides”. Besides, the “depletion of dTTP and dCTP” value in data set [3] (relative to UTP and CTP, uridine addition) is “proportional to that of UTP and CTP and can be prevented by the addition of uridine”. The “inhibition of growth of in vitro cell lines, reversal by nucleosides” value with in vitro cell lines was “can be abolished by addition of uridine or cytidine, but not by deoxythymidine or deoxycytidine”. The plasma uridine values entry in the data set with plasma uridine (Peters et al., 1988) is reported as “significantly lowers the plasma uridine values”. Also, in the data set with plasma uridine, the “correlation of in vivo uridine level effects with bone marrow and gastrointestinal tract toxicity” value is “correlated with the bone marrow and gastrointestinal tract toxicity”.
